Laboratory results: paper PMC7296167, “SrrB, a Pseudo-Receptor Protein, Acts as a Negative Regulator for Lankacidin and Lankamycin Production in Streptomyces rochei” (Frontiers in Microbiology, 2020)

Legend:
SrrA = biological target: T1, SrrA (Streptomyces rochei, UniProt Q83X22); assay: gel shift assay, dissociation from […]-labelled srrB probe B1 and srrY probe Y1; assay type: binding; conditions: […] SRB1 on probe B1, concentration series on probe Y1; […] SrrA, […] probe, […] C, pH […]
T1 construct: recombinant, overexpressed in E. coli, prepared as in Yamamoto et al. 2008
T1 sequence (Q83X22 1-222): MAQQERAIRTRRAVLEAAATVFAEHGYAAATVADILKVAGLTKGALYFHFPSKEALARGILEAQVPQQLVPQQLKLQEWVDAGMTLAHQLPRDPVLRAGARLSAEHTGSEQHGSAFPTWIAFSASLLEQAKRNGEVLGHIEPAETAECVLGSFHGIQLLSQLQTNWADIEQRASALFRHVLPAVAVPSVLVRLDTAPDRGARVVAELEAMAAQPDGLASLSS

SrrB = biological target: T2, SrrB (Streptomyces rochei, UniProt Q83X25); assay: gel shift assay, dissociation from […]-labelled srrY promoter probe Y1; assay type: binding; conditions: 0.5 nM probe Y1, 2,000 nM SrrB, 26 C, pH 8.0; DNA release read-out
T2 construct: pET32b(+) His6 fusion from E. coli BL21(DE3)pLysS; N-terminal tag removed with enterokinase
T2 sequence (Q83X25 1-228): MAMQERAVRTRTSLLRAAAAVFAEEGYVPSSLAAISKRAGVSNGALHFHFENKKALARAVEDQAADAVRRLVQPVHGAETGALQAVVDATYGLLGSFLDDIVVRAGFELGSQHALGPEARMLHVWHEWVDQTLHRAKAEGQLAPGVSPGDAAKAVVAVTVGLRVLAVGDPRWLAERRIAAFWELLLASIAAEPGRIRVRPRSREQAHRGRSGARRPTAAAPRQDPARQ

## CC1=C([C@H](O)CCCCC(=O)CC(C)C)C(=O)OC1O (some centres unmarked) [compound 7, SRB1]
SrrA
  gel shift assay, dissociation from 32P-labelled srrB probe B1 and srrY probe Y1: Addition of SRB led to dissociation of SrrA from probe B1
SrrB
  concentration required for dissociation: 1 mM
